One assay deals with human factor XIa (Homo sapiens, UniProt P03951). The assay is described as follows: Factor XIa Assay. The conditions noted are these: human factor XIa 0.04 nM, substrate GPR-AFC, 30 min pre-incubation, 25° C., pH 7.4; read-out: FXIa IC50. In kind it is biochemical.
The target in another assay is T1, Human plasma kallikrein (Homo sapiens, UniProt P03952).
T1 construct: yields a heavy chain (371 amino acids) and a light chain (248 amino acids); The active site of plasma kallikrein is contained in the light chain; purchased Enzyme Research Laboratories
T1 sequence (P03952 391-638 limits assumed): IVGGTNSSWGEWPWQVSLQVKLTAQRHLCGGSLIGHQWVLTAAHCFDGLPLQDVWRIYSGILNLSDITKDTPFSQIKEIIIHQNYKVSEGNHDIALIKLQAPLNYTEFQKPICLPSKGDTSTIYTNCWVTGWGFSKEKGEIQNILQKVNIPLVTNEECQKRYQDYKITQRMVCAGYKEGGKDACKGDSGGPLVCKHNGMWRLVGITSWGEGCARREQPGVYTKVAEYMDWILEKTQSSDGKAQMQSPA
T1 sequence (P03952 20-390 partner limits assumed): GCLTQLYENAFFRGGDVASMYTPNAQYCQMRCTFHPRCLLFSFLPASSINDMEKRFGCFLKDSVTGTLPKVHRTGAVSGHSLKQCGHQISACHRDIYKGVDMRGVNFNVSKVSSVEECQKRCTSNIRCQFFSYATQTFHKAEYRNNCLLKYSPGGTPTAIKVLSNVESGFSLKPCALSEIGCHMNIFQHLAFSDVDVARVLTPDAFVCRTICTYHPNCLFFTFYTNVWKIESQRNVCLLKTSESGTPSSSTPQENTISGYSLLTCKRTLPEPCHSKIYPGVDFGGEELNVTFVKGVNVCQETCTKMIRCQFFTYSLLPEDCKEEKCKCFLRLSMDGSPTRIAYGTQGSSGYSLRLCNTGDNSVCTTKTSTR
Nature of the assay: Plasma Kallikrein Assay. In kind it is biochemical. The conditions noted are these: purified Human plasma kallikrein 0.5 nM, substrate Acetyl-K-P-R-AFC, HEPES pH 7.4; read-out: PKal IC50. The method, boiled down: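 Purified human plasma kallikrein at 0.5 nM final with substrate Acetyl-K-P-R-AFC at […], in 50 mM HEPES pH 7.4, 150 mM NaCl, 5 mM CaCl2, 0.1% PEG 8000, at rt or 37° C after enzyme-inhibitor equilibration. IC50 from four-parameter logistic fit of fluorescence rate; Ki via Cheng-Prusoff.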

pIC50: −log10 of the molar value.

human factor XIa, sequence (P03951 388-625 limits assumed): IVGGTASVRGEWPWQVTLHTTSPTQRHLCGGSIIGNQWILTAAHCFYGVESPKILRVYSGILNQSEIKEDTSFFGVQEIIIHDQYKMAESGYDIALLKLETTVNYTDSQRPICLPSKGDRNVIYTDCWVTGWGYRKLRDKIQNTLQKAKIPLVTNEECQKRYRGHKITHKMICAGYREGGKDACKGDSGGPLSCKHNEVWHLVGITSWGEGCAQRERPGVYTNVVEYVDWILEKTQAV
human factor XIa, sequence (P03951 19-387 partner limits assumed): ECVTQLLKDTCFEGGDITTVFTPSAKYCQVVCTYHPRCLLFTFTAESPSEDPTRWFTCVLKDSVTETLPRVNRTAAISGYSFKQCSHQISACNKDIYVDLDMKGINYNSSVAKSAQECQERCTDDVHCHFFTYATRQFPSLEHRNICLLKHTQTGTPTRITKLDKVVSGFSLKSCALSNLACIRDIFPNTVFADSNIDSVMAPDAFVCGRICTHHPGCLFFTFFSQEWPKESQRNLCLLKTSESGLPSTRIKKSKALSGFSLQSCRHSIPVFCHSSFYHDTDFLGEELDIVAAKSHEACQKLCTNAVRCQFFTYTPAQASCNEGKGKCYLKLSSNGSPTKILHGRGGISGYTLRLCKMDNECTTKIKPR

As a reminder, the pIC50 is the negative decadic logarithm of the IC50, by convention in mol/L. As for `Cc1cccc(-n2ncc(C(=O)N3CCC[C@@]4(C3)OC(=O)Nc3ccc(Cl)c(F)c34)c2N)c1C` [Example 85, (R)-1'-(5-Amino-1-(2,3-dimethylphenyl)-1H-pyrazole-4-carbonyl)-6-chloro-5-fluorospiro[benzo[d][1,3]oxazine-4,3'-piperidin]-2(1H)-one], the negative logarithm of the IC50 (pIC50) at human factor XIa was 5.71; at Human plasma kallikrein, 8.04.

Regarding `Nc1c(C(=O)N2CCC[C@@]3(C2)OC(=O)Nc2ccc(Cl)c(F)c23)cnn1-c1ccnc2ccccc12` [Example 103, (R)-1'-(5-Amino-1-(quinolin-4-yl)-1H-pyrazole-4-carbonyl)-6-chloro-5-fluorospiro[benzo[d][1,3]oxazine-4,3'-piperidin]-2(1H)-one], the negative logarithm of the IC50 (pIC50) is 6.21 at human factor XIa and 8.00 on Human plasma kallikrein.

For `Nc1c(C(=O)N2CCC[C@@]3(C2)OC(=O)Nc2ccc(Cl)c(F)c23)cnn1-c1ccnc2c(F)cccc12` [Example 104, (R)-1'-(5-Amino-1-(8-fluoroquinolin-4-y1)-1H-pyrazole-4-carbonyl)-6-chloro-5-fluorospiro[benzo[d][1,3]oxazine-4,3'-piperidin]-2(1H)-one], the values for the pIC50 on human factor XIa and on Human plasma kallikrein were 6.25 and 8.02, respectively.

With `Nc1c(C(=O)N2CCC[C@@]3(C2)OC(=O)Nc2ccc(Cl)c(F)c23)cnn1CC1(C(F)(F)F)CC1` [Example 26, (R)-1'-(5-Amino-1-((1-(trifluoromethyl)cyclopropyl)methyl)-1H-pyrazole-4-carbonyl)-6-chloro-5-fluorospiro[benzo[d][1,3]oxazine-4,3'-piperidin]-2(1H)-one], the negative logarithm of the IC50 (pIC50) is 6.45 on human factor XIa and 8.08 on Human plasma kallikrein.

Take `Nc1c(C(=O)N2CCC[C@@]3(C2)OC(=O)Nc2ccc(Cl)c(F)c23)cnn1CC(F)F` [Example 15, (R)-1'-(5-Amino-1-(2,2-difluoroethyl)-1H-pyrazole-4-carbonyl)-6-chloro-5-fluorospiro[benzo[d][1,3]oxazine-4,3'-piperidin]-2(1H)-one]: the negative logarithm of the IC50 (pIC50) was 6.05 at human factor XIa and 7.77 on Human plasma kallikrein.

For `COCC(C)(n1ncc(C(=O)N2CCC[C@@]3(C2)OC(=O)Nc2ccc(Cl)c(F)c23)c1N)C(F)(F)F` (single isomer, unassigned) [Example 129], the pIC50 on human factor XIa was 6.05; at Human plasma kallikrein, 8.19.

On to `Nc1c(C(=O)N2CCC[C@@]3(C2)OC(=O)Nc2ccc(Cl)c(F)c23)cnn1C1(C(F)(F)F)CCOCC1` [Example 53, (R)-1'-(5-Amino-1-(4-(trifluoromethyl)tetrahydro-2H-pyran-4-y1)-1H-pyrazole-4-carbonyl)-6-chloro-5-fluorospiro[benzo[d][1,3]oxazine-4,3'-piperidin]-2(1H)-one], for which the pIC50 on human factor XIa is 5.95; on Human plasma kallikrein, 8.06.

Regarding `CCn1ncc(C(=O)N2CCC[C@@]3(C2)OC(=O)Nc2ccc(Cl)c(F)c23)c1N` [Example 25, (R)-1'-(5-Amino-1-ethy1-1H-pyrazole-4-carbonyl)-6-chloro-5-fluorospiro[benzo[d][1,3]oxazine-4,3'-piperidin]-2(1H)-one], the negative logarithm of the IC50 (pIC50) is 5.70 on human factor XIa and 7.61 at Human plasma kallikrein.

As for `Nc1c(C(=O)N2CCC[C@@]3(C2)OC(=O)Nc2ccc(Cl)c(F)c23)cnn1-c1ccccc1OC(F)F` [Example 90, (R)-1'-(5-Amino-1-(2-(difluoromethoxy)phenyl)-1H-pyrazole-4-carbonyl)-6-chloro-5-fluorospiro[benzo[d][1,3]oxazine-4,3'-piperidin]-2(1H)-one], the pIC50 on human factor XIa was 6.67; at Human plasma kallikrein, 8.18.

For `Nc1c(C(=O)N2CCC[C@@]3(C2)OC(=O)Nc2ccc(Cl)c(F)c23)cnn1-c1ccccc1OC1CC1` [Example 89, (R)-1'-(5-Amino-1-(2-cyclopropoxyphenyl)-1H-pyrazole-4-carbonyl)-6-chloro-5-fluorospiro[benzo[d][1,3]oxazine-4,3'-piperidin]-2(1H)-one], the values for the pIC50 on human factor XIa and on Human plasma kallikrein were 6.79 and 8.80, respectively.

In the case of `CCC(c1ccccc1)n1ncc(C(=O)N2CCC[C@@]3(C2)OC(=O)Nc2ccc(Cl)c(F)c23)c1N` (single isomer, unassigned) [Example 117, (R)-1'-(5-Amino-1-((R or S)-1-phenylpropyl)-1H-pyrazole-4-carbonyl)-6-chloro-5-fluorospiro[benzo[d][1,3]oxazine-4,3'-piperidin]-2(1H)-one], the pIC50 on human factor XIa was 7.52; on Human plasma kallikrein, 9.05.

Turning to `CC1(C)CN(C(=O)c2cnn(-c3ccccc3)c2N)C[C@]2(C1)OC(=O)Nc1ccc(Cl)c(F)c12` [Example 69, (R)-1'-(5-Amino-1-phenyl-1H-pyrazole-4-carbonyl)-6-chloro-5-fluoro-5',5'-dimethylspiro[benzo[d][1,3]oxazine-4,3'-piperidin]-2(1H)-one], the pIC50 on human factor XIa is 5.34; on Human plasma kallikrein, 7.38.

With `CC(C)OCCn1ncc(C(=O)N2CCC[C@@]3(C2)OC(=O)Nc2ccc(Cl)c(F)c23)c1N` [Example 21, (R)-1'-(5-Amino-1-(2-isopropoxyethyl)-1H-pyrazole-4-carbonyl)-6-chloro-5-fluorospiro[benzo[d][1,3]oxazine-4,3'-piperidin]-2(1H)-one], the pIC50 is 5.96 on human factor XIa and 7.90 on Human plasma kallikrein.

`CC(C)(n1ncc(C(=O)N2CCC[C@@]3(C2)OC(=O)Nc2ccc(Cl)c(F)c23)c1N)C(F)(F)F` [Example 49, (R)-1'-(5-Amino-1-(1,1,1-trifluoro-2-methylpropan-2-y1)-1H-pyrazole-4-carbonyl)-6-chloro-5-fluorospiro[benzo[d][1,3]oxazine-4,3'-piperidin]-2(1H)-one]: the pIC50 was 5.53 on human factor XIa and 7.77 at Human plasma kallikrein.

On to `Nc1c(C(=O)N2CCC[C@@]3(C2)OC(=O)Nc2ccc(Cl)c(F)c23)cnn1-c1ccccc1OCC(F)(F)F` [Example 99, (R)-1'-(5-Amino-1-(2-(2,2,2-trifluoroethoxy)phenyl)-1H-pyrazole-4-carbonyl)-6-chloro-5-fluorospiro[benzo[d][1,3]oxazine-4,3'-piperidin]-2(1H)-one], for which the negative-log IC50 (pIC50) is 5.97 on human factor XIa and 7.88 on Human plasma kallikrein.

On to `Nc1c(C(=O)N2CCC[C@@]3(C2)OC(=O)Nc2ccc(Cl)c(F)c23)cnn1Cc1cccc(F)c1` [Example 9, (R)-1'-(5-Amino-1-(3-fluorobenzyl)-1H-pyrazole-4-carbonyl)-6-chloro-5-fluorospiro[benzo[d][1,3]oxazine-4,3'-piperidin]-2(1H)-one], for which the results for the negative-log IC50 (pIC50) at human factor XIa and at Human plasma kallikrein were 6.60 and 9.05, respectively.

As to `Nc1c(C(=O)N2CCC[C@@]3(C2)OC(=O)Nc2ccc(Cl)c(F)c23)cnn1CC1CCCCC1` [Example 36, (R)-1'-(5-Amino-1-(cyclohexylmethyl)-1H-pyrazole-4-carbonyl)-6-chloro-5-fluorospiro[benzo[d][1,3]oxazine-4,3'-piperidin]-2(1H)-one], the pIC50 on human factor XIa is 6.85; on Human plasma kallikrein, 8.70.

As for `COc1ccc(Cl)cc1-n1ncc(C(=O)N2CCC[C@@]3(C2)OC(=O)Nc2ccc(Cl)c(F)c23)c1N` [Example 94, (R)-1'-(5-Amino-1-(5-chloro-2-methoxyphenyl)-1H-pyrazole-4-carbonyl)-6-chloro-5-fluorospiro[benzo[d][1,3]oxazine-4,3'-piperidin]-2(1H)-one], the pIC50 at human factor XIa was 5.89; on Human plasma kallikrein, 7.93.

`Nc1c(C(=O)N2CCC[C@@]3(C2)OC(=O)Nc2ccc(Cl)c(F)c23)cnn1-c1cccc2c1OC(F)(F)O2` [Example 91, (R)-1'-(5-Amino-1-(2,2-difluorobenzo[d][1,3]dioxol-4-y1)-1H-pyrazole-4-carbonyl)-6-chloro-5-fluorospiro[benzo[d][1,3]oxazine-4,3'-piperidin]-2(1H)-one]: the pIC50 on human factor XIa was 6.28; on Human plasma kallikrein it was 8.24.

Regarding `Nc1c(C(=O)N2CCC[C@@]3(C2)OC(=O)Nc2ccc(Cl)c(F)c23)cnn1-c1ccncc1Cl` [Example 73, (R)-1'-(5-Amino-1-(3-chloropyridin-4-y1)-1H-pyrazole-4-carbonyl)-6-chloro-5-fluorospiro[benzo[d][1,3]oxazine-4,3'-piperidin]-2(1H)-one], the pIC50 on human factor XIa is 6.50; on Human plasma kallikrein, 7.65.

In the case of `Cn1c(-c2ccccc2)nnc1-n1ncc(C(=O)N2CCC[C@@]3(C2)OC(=O)Nc2ccc(Cl)c(F)c23)c1N` [Example 30, (R)-1'-(5-Amino-1-(4-methyl-5-phenyl-4H-1,2,4-triazol-3-y1)-1H-pyrazole-4-carbonyl)-6-chloro-5-fluorospiro[benzo[d][1,3]oxazine-4,3'-piperidin]-2(1H)-one], the pIC50 on human factor XIa is 5.55; on Human plasma kallikrein, 7.74.

As to `Cc1cccc(Cn2ncc(C(=O)N3CCC[C@@]4(C3)OC(=O)Nc3ccc(Cl)c(F)c34)c2N)c1` [Example 45, (R)-1'-(5-Amino-1-(3-methylbenzyl)-1H-pyrazole-4-carbonyl)-6-chloro-5-fluorospiro[benzo[d][1,3]oxazine-4,3'-piperidin]-2(1H)-one], the negative-log IC50 (pIC50) at human factor XIa was 6.81; on Human plasma kallikrein, 9.15.

As to `CC(C1CC1)(n1ncc(C(=O)N2CCC[C@@]3(C2)OC(=O)Nc2ccc(Cl)c(F)c23)c1N)C(F)(F)F` (single isomer, unassigned) [Example 127, (R)-1'-(5-Amino-1-((S or R)-2-cyclopropyl-1,1,1-trifluoropropan-2-y1)-1H-pyrazole-4-carbonyl)-6-chloro-5-fluorospiro[benzo[d][1,3]oxazine-4,3'-piperidin]-2(1H)-one], the negative logarithm of the IC50 (pIC50) is 5.99 on human factor XIa and 8.17 on Human plasma kallikrein.
